{"source": "patent US6797722B2", "about": "(Sigma-Tau Industrie Farmaceutiche Riunite S.p.A., priority 2002, dated 2004)", "origin": "cited, not measured here", "settings": "oral route", "data": [{"molecule": "CCc1ccccc1-c1n[nH]c(-c2cccc(OC)c2)n1", "note": "[ST1959, 3-(2-ethylphenyl)-5-(3-methoxyphenyl)-1H-1,2,4-triazole]", "values": [{"measurement": "hepatic first-pass effect", "value": "rapid and extensive hepatic first-pass effect leading to the formation of inactive metabolites"}]}]}
